The melting point is the temperature, or range, at which the solid turns liquid.

Molecule `C=CCN(CC=C)c1nc(NC(=O)COC)n2oc(=O)nc2n1` showed a melting point of 135 to 136 °C.
Regarding `CC(C)n1nc(-c2cnc(N)nc2-c2ccco2)ccc1=O`, the melting point was 215 °C.
The result for `CCc1c(Cc2cc(C)cc(C)c2)n(COCCCCO)c(=O)[nH]c1=O` reads 101 to 103 °C.
`Nc1c(Br)cc(OC(F)F)cc1[N+](=O)[O-]` showed a melting point of 60.5 to 61.5 °C.
`O=Cc1ccc2cccc3c4cccc5cccc(c1c23)c54` showed a melting point of 232 to 234 °C.
In the case of `CC#CCn1c(=N)sc2cc(OC(F)(F)F)ccc21`, the melting point came out at 116 °C.
In turn, `Cc1cnc2c(c1)C(=O)CC(C)(C)C2` displayed a melting point of 232 to 235 °C.
Turning to `O=C(N[C@H]1CN(Cc2ccccc2)[C@@H]2CCO[C@H]12)C(F)(F)F` (relative stereo), the melting point was 150 to 154 °C.
For `NC(=NO)c1ccc(-c2ccc(O)cc2)o1`, the melting point was 157 to 158 °C.
Turning to `Cc1nnc(CN2C(=O)c3ccccc3C2=O)n1-c1ccc(Cl)cc1C(=O)c1ccccc1Cl`, the melting point lay in the range of 262 to 265 °C.
`Cc1cc(-c2nc3cccnn3c2-c2ccnc(NC(=O)c3cccc4cccnc34)c2)ccc1F` registered a melting point of 229 to 230 °C.
On to `C[C@]12CCC(=O)N[C@@H]1CCc1cc(Sc3ccc4ccccc4n3)ccc12`, for which the melting point lay in the range of 220 to 222 °C.
To `CCn1c(N(C)C)nc2cc(C(F)(F)F)c(Cl)c([N+](=O)[O-])c21` belongs 121 to 122 °C; to `CC=CC(=O)N(CCCCC(=O)O)C(c1ccccc1)c1ccccc1`, 88 to 89 °C.
As for `Cc1nn(-c2ccc(Cl)cc2)c(=O)[nH]1`, the melting point was 218 to 219 °C.
Molecule `CC#CCn1nnc2cc3c(=O)n(C(C)Cn4nccn4)nnc3cc2c1=O` (stereo not drawn) came in with a melting point of 154 to 156 °C.
The molecule `Cc1cc(C)c2c(c1)CC2=NNC(N)=S` came in with a melting point of 230 to 232 °C.
To `NNc1ccc([N+](=O)[O-])cc1F` belongs 119 to 121 °C; to `COC(=O)c1ccc(Cn2c(=O)c(C)c3sc(C(=O)NCc4ccc(F)cc4)cn3c2=O)cc1C`, 179 to 180 °C.
To `Cc1ccc(S(=O)(=O)OCC2(CO)OC(n3ccc(=O)[nH]c3=O)C(O)C2OCc2ccccc2)cc1` (stereo not drawn) belongs 195 to 197 °C.
In turn, `COc1ccc(C2CC(C(C)(C)C)=NN2c2ccc(C(=O)O)cc2)c(OC)c1` (stereo not drawn) gave a melting point of 214 °C.
To `Cc1csc2nc(-c3ccc(C(=O)O)cc3)nc(Cc3ccc4c(c3)OCO4)c12` belongs 250 °C; to `CC(C)n1nc(O)nc1Cl`, 100 to 104 °C.
Turning to `CCc1ccc2c(=O)c(-c3nnn[nH]3)cn(C)c2c1`, the melting point was in the range of 180 to 181 °C.
To `COC(=O)c1cc(OC)c(O)cc1-c1c(C(=O)OC)ccc2c1OCO2` belongs 172 to 173 °C; to `COc1ccc(C(=O)N2c3ccccc3C(n3c4ccccc4c4ccccc43)CC2CCCCCN(C)C)cc1OC` (stereo not drawn), 198 to 200 °C.
To `CC(C)(C)OC(=O)N1CCN(c2ccc(N3CC(CO)OC3=O)cc2F)CC1` (stereo not drawn) belongs 144 to 146 °C; to `COc1cc(OC)c2c(c1OC)CCC(C(=O)Cc1cccc(F)c1)C2C#N` (stereo not drawn), 58 to 62 °C; to `CCCOc1ncc(C(C)=O)cc1-c1nc2c(CC)n(C3CN(C(C)C)C3)nc2c(=O)[nH]1`, 163 to 164 °C.
To `CC(=O)OC1CCC2(COS(=O)(=O)c3ccc(C)cc3)C(=CCC3C2CCC2(C)C(OC(C)=O)CCC32)C1` (stereo not drawn) belongs 135 to 137 °C.
Turning to `O=C1CNC(=O)N1CCNCc1ccc(CN2CCCCC2)o1`, the melting point is 133 to 136 °C.
The result for `O=C(NC(=O)c1cccs1)NC1CCNC(Cc2ccc3ccccc3c2)C1` (stereo not drawn) reads 217 to 219 °C.
Molecule `NC(=O)C(F)(F)C(F)(F)C(=O)C(F)(F)F` came in with a melting point of 82 to 87 °C.
The molecule `CC(C)C(c1ccc(N)c([N+](=O)[O-])c1)n1cncn1` (stereo not drawn) showed a melting point of 206 °C.
Consider `CCOC(=O)C1=C(C)NC(C)=C(C(=O)OC)C1c1cccc2ccccc12` (stereo not drawn), for which the melting point lay within 196 to 197 °C.
Regarding `O=C1CCCN(C(=O)c2ccccc2)C(=O)CCc2cc(Cl)ccc21`, the melting point fell in the range of 129 to 131 °C.
`CN(C)c1ccc2cc(-c3ccnc(SCCO)c3C#N)ccc2c1` gave a melting point of 210 to 212 °C.
Consider `CCOC(=O)COc1ccc2c(c1)CCC2=O`, for which the melting point lay within 59 to 61 °C.
`CN(Cc1sc2c(=O)c(C(=O)NCc3ccc(Cl)cc3)cn(C)c2c1CO)CC(O)c1ccc(C#N)s1` (stereo not drawn) gave a melting point of 188 to 190 °C.
`CCC(C#N)CCn1nc(C(N)=O)c2ccccc21` (stereo not drawn) showed a melting point of 178 to 180 °C.
On to `CN1CCN(c2ccc(Nc3ncc4ccc(-c5ccc(S(C)(=O)=O)cc5)n4n3)cc2F)CC1`, for which the melting point came out at 227 °C.
`CCN(CC)CCNC(=O)c1cc(Cl)c(N)cc1OCCC(C)O` (stereo not drawn): the melting point is 136 to 138 °C.
As for `CC(=O)Nc1ccc([N+](=O)[O-])c(N2CCN(C(C)=O)CC2)n1`, the melting point lay in the range of 189 to 193 °C.
To `Cn1cc(C(=O)F)c(C(F)F)c1` belongs 53 to 54 °C.
Take `CCCOc1ccccc1-c1nc2nc(NCCN(C)C)ncc2c(=O)[nH]1`: the melting point lay in the range of 181 to 182 °C.
The result for `CC(C)N(C(=O)Cl)c1ccccc1` reads 89 to 90 °C; that for `COC1Cc2nc3cc(N)ccc3n2C1` (stereo not drawn), 140 to 142 °C; that for `O=C(O)c1cccc(Oc2ccc(C(F)(F)F)c(Cl)c2)c1`, 90 to 91 °C.
The result for `Cc1oc(-c2ccc(F)cc2)nc1COc1cccc(CN(O)C(N)=O)c1` reads 156 to 157 °C.
The result for `O=[N+]([O-])c1ccc(C#CCCN2CCN(c3ccccn3)CC2)nc1` reads 126 °C; that for `CC1(C)OC(=O)Nc2ncc(-c3cccc(Cl)c3)cc21`, 214 to 215 °C; that for `CC(OCCO)n1cc(F)c(=O)[nH]c1=O` (stereo not drawn), 118 to 120 °C.
Consider `CCCCc1ncc(CO)n1Cc1ccc(OCc2ccccc2C(=O)O)cc1`, for which the melting point was in the range of 115 to 116 °C.
For the molecule `Fc1ccc(C(C(Br)c2ccccc2)C(F)(F)F)cc1` (stereo not drawn), the melting point lay within 144 to 146 °C.
In the case of `CCC1(CCCCN2CCN(c3ccc(OC)cc3)CC2)C(=O)Nc2ccccc21` (stereo not drawn), the melting point lay in the range of 109 to 110 °C.
`Cn1c(=O)c(=O)n(Cc2ccc(Cl)cc2Cl)c2cc(C(=O)O)ccc21` showed a melting point of 320 to 322 °C.
`COc1ccc2c(c1)c(CC(=O)N(C(=O)NC1CCCCC1)C1CCCCC1)c(C)n2-c1ncnc2cc(Cl)ccc12`: the melting point fell in the range of 105 to 107 °C.
`O=C(Nc1ccc(-n2nc(C(F)(F)F)cc2C(F)(F)F)cc1)c1ccccc1C(F)(F)F` came in with a melting point of 133 to 135 °C.
`c1ccc(CN2CCN(Cc3ccccc3)[C@@H](CCc3cccnc3)C2)cc1` returned a melting point of 94 to 95.5 °C.
Molecule `Cc1cc2c(cc1-c1cc(C=C3SC(=O)NC3=O)ccc1OC(F)(F)F)N(C)C(=O)CC2(C)C` displayed a melting point of 182 to 184 °C.
In the case of `COc1ccc(-c2nc3cccc(C(=O)NC4CN5CCC4CC5)c3o2)cc1` (stereo not drawn), the melting point lay within 166 to 167 °C.
`COc1cccc(C=C2N=C(c3ccccc3)OC2=O)c1` had a melting point of 100 to 102 °C.
The result for `CCOP(=O)(/C=C/c1cn(-c2ccccc2)nc1OCc1ccc(OCc2nc(N3CCC(C(=O)O)CC3)sc2C)c(OC)c1)OCC` reads 159 to 160 °C; that for `CCOC(=O)CCc1cn(Cc2ccc(O)cc2)nc1O`, 143 to 144 °C; that for `Oc1ccc(C2COc3cc(O)cc(O)c3C2)cc1` (stereo not drawn), 206 to 208 °C.
In turn, `CCOC(=O)C=Cc1cc([N+](=O)[O-])c(F)cc1Cl` had a melting point of 86 to 88 °C.
In turn, `CC12CC(CCCCCO)C3c4ccc(O)cc4CCC3C1CCC2O` (stereo not drawn) gave a melting point of 152 °C.
The molecule `Cc1[nH]nc(C(C)C)c1Oc1cc(C#N)cc(C#N)c1` gave a melting point of 142 to 144 °C.
As for `O=C1NC(Cc2ccc(OCc3ccccc3)cn2)C(=O)NC1Cc1ccc(OCc2ccccc2)cc1` (stereo not drawn), the melting point fell in the range of 200 to 202 °C.
With `COc1ccc(C(=O)Nc2ccccc2)cc1NC(=S)Nc1ccc(Cl)c([N+](=O)[O-])c1`, the melting point lay in the range of 174 to 175 °C.
On to `OC1CCCCC1n1c(NC2CC2)nc2cc(Cl)c(Cl)cc21` (stereo not drawn), for which the melting point fell in the range of 149 to 151 °C.
With `C#CCOC(=O)C1=C(C)N(C)C(C)=C(C(=O)OCC#C)C1c1cccc(C(F)(F)F)c1`, the melting point worked out at 163 °C.
For `CC(C)C[C@H](NC(=O)OCc1ccccc1)C(=O)N[C@@H](Cc1ccccc1)C(=O)CSCCN(C)C`, the melting point was in the range of 67 to 69 °C.
`COC(=O)NNC(=O)CCc1ccccc1` yielded a melting point of 118 °C.
Turning to `Cc1ccc(Nn2c(-c3ccccc3)c(C)[nH]c2=S)cc1Cl`, the melting point turned out to be 190 °C.
`O=C(NCCCn1cncn1)c1ccc(Cl)nc1` gave a melting point of 87 to 89 °C.
For the molecule `O=C(C1CCC1)N1CCC2(CC1)Cc1ccccc1O2`, the melting point is 91 to 93 °C.
Molecule `O=C(Oc1ccccc1)N1CCN2C(=O)OC(c3ccccc3)(c3ccccc3)C2C1` (stereo not drawn) returned a melting point of 189 to 191 °C.
`CN1CCC(CCCC2CCN(CC(=O)N3c4ccccc4C(=O)Nc4cccnc43)CC2)CC1`: the melting point lay within 192 to 194 °C.
The result for `CC1(C)C(=O)ON(Cc2cc(Cl)ccc2Cl)C1=O` reads 78 to 80 °C; that for `CC(O)(CF)C(=O)Nc1ccc(C(=O)c2ccccc2)cc1` (stereo not drawn), 146 to 148 °C; that for `Cc1ccc(C2=Cc3cc(C(=O)N[C@H]4CC[C@H](CN(C)C5CCOCC5)CC4)ccc3OC2)cc1`, 205 to 207 °C.
As for `COCCOc1ccc(NC(=O)OCc2ccccc2)cc1C(=O)O`, the melting point fell in the range of 130 to 131 °C.
In turn, `C(=Cc1nc2ccccc2o1)c1ccccc1` yielded a melting point of 78 to 79 °C.
Molecule `Cc1ccc2c(c1)c(N1CCNCC1)c(C#N)c(=O)n2Cc1ccc(F)cc1` yielded a melting point of 121 °C.
`CCn1cc(C(=O)O)c(=O)c2cc(F)c(N3C[C@@H](N)[C@@H]3C)cc21` (relative stereo): the melting point was 232 to 235 °C.
As for `COc1ccc2ncc(C#N)c(Nc3cc(O)c(Cl)cc3F)c2c1`, the melting point lay in the range of 228 to 230 °C.
`C/C(=C(\C#N)C(=S)/N=C/N(C)C)N1CCCN(c2ccc(C)c(F)c2)CC1` returned a melting point of 254 to 256 °C.

Values taken from a melting point compilation (Tetko et al.; mined from patent text by program, amines drawn as free bases though some values may be those of a salt).
